Key:
rat TRPV1 [1] = target: T1, rat TRPV1 (Rattus norvegicus, UniProt O35433); settings: for decrease in agonism on replacing or removing the 3-methoxy group of compound 1: comparator not given
rat TRPV1 [2] = target: T1, rat TRPV1; test: biochemical; type: binding
[3] = system: transient receptor potential vanilloid 1 (TRPV1) channel; settings: cited from earlier work
TRPV1 = settings: cited from earlier work
[4] = cited from earlier work

T1 sequence (O35433 whole entry): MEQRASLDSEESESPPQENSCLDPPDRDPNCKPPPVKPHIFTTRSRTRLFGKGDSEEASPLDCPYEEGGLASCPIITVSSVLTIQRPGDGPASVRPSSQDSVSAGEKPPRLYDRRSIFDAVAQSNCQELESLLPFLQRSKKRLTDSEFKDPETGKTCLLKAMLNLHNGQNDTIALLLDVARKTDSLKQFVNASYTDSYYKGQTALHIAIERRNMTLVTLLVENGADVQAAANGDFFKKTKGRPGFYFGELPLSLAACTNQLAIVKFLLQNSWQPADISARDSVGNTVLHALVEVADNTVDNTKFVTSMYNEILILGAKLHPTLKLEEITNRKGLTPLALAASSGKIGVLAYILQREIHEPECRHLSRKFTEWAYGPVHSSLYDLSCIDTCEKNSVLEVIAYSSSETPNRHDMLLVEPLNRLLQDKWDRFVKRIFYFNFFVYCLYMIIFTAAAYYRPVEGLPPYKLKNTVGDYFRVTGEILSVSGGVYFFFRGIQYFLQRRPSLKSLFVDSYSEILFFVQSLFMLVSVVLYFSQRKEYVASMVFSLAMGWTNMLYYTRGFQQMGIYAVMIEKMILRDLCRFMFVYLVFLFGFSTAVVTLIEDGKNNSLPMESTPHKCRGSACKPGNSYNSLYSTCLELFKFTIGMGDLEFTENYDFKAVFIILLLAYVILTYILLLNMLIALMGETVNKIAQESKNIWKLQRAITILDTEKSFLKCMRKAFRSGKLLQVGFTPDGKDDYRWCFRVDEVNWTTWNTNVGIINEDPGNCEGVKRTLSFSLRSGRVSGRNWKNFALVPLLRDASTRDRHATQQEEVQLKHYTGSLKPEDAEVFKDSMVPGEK

Q: With `C=C(C)[C@@]12C[C@@H](C)[C@@]34OC(Cc5ccccc5)(O[C@@H]1[C@@H]3C=C(COC(=O)Cc1ccc(NS(C)(=O)=O)c(F)c1)C[C@]1(O)C(=O)C(C)=C[C@@H]41)O2` [Compound 2, 3-Fluoro-4-(methylsulfonylamino) analogue] as the compound, how does the “decrease in agonism on replacing or removing the 3-methoxy group of compound 1” value (rat TRPV1 [1]) read?
A: The value was 9 fold.

Q: With `C=C(C)[C@@]12C[C@@H](C)[C@@]34OC(Cc5ccccc5)(O[C@@H]1[C@@H]3C=C(COC(=O)Cc1ccc(NS(C)(=O)=O)cc1)C[C@]1(O)C(=O)C(C)=C[C@@H]41)O2` [Compound 3, 4-(Methylsulfonylamino) analogue] as the compound, how does the “decrease in agonism on replacing or removing the 3-methoxy group of compound 1” value (rat TRPV1 [1]) read?
A: The value was 7 fold.

Q: For `C=C(C)[C@@]12C[C@@H](C)[C@@]34OC(Cc5ccccc5)(O[C@@H]1[C@@H]3C=C(CNC(=O)Cc1ccc(NS(C)(=O)=O)cc1)C[C@]1(O)C(=O)C(C)=C[C@@H]41)O2` [Compound 14, Amide analogue], which “drop in binding, amide versus ester compound 3” value (rat TRPV1 [2]; compared to compound 3) is on record?
A: Its value is 50 fold.

Q: What about the “drop in agonism, amide versus ester compound 3” value (rat TRPV1 [1]; compared to compound 3) of the same compound?
A: The value was 210 fold.

Q: For `C=C(C)[C@]12C[C@@H](C)[C@@]34O[C@](Cc5ccccc5)(O[C@@H]1[C@@H]3C=C(COC(=O)Cc1ccc(O)c(OC)c1)C[C@]1(O)C(=O)C(C)=C[C@@H]41)O2` [RTX, Resiniferatoxin], which “greater potency than the prototypic agonist capsaicin” value [3] is on record?
A: Its value is 10^3- to 10^4 fold.

Q: With `C=C(C)[C@@]12C[C@@H](C)[C@@]34OC(Cc5ccccc5)(O[C@@H]1[C@@H]3C=C(COC(=O)Cc1ccccc1F)C[C@]1(O)C(=O)C(C)=C[C@@H]41)O2` [Compound 4, 2-Fluoro analogue] as the compound, how does the Ki (rat TRPV1 [2]) read?
A: Its Ki is 0.73 nM.

Q: For `C=C(C)[C@@]12C[C@@H](C)[C@@]34OC(Cc5ccccc5)(O[C@@H]1[C@@H]3C=C(COC(=O)Cc1cc(F)ccc1F)C[C@]1(O)C(=O)C(C)=C[C@@H]41)O2` [Compound 9, 2,5-Difluoro analogue], which “relative affinity compared to RTX” value (rat TRPV1 [2]; compared to RTX) is on record?
A: Its value is 0.1.

Q: With `C=C(C)[C@]12C[C@@H](C)[C@@]34O[C@](Cc5ccccc5)(O[C@@H]1[C@@H]3C=C(COC(=O)Cc1ccc(O)cc1)C[C@]1(O)C(=O)C(C)=C[C@@H]41)O2` [tinyatoxin] as the compound, how does the “decrease in binding potency compared to RTX” value (TRPV1) read?
A: Its value is 3 fold.

Q: And the “loss of biological potency compared to RTX” value [4]?
A: The value was 6 fold.

Q: With `C=C(C)[C@@]12C[C@@H](C)[C@@]34OC(Cc5ccccc5)(O[C@@H]1[C@@H]3C=C(COC(=O)Cc1ccc(F)cc1F)C[C@]1(O)C(=O)C(C)=C[C@@H]41)O2` [Compound 8, 2,4-Difluoro analogue] as the compound, how does the “relative agonism compared to RTX” value (rat TRPV1 [1]; compared to RTX) read?
A: The value was 0.15.

Q: Which “reduction in binding affinity compared to RTX” value (rat TRPV1 [2]) does the source give for `C=C(C)[C@@]12C[C@@H](C)[C@@]34OC(Cc5ccccc5)(O[C@@H]1[C@@H]3C=C(COC(=O)Cc1ccc(NS(C)(=O)=O)c(OC)c1)C[C@]1(O)C(=O)C(C)=C[C@@H]41)O2` [Compound 1, 3-Methoxy-4-(methylsulfonylamino) analogue] here?
A: The value was 5 fold.

Q: And the “enhancement of functional activity (agonism) compared to RTX” value (rat TRPV1 [1])?
A: The value was 2.5 fold.
